In patent US9079901B2, “Fused heterocyclic compounds as ion channel modulators” (Gilead Sciences, Inc., priority 2010, dated 2015):

Biological target: wild-type human cardiac sodium channel, hNav1.5 (late sodium current) in HEK293 cells (Homo sapiens, UniProt Q14524)
Assay: Late INa screening assay (automated whole-cell patch clamp, PatchXpress)
Format: cell-based
Settings: late INa generated with 10 μM Tefluthrin (or 50 nM ATX II), HEK293 hNav1.5; for inhibition at 1 µM: HEK293, compound at 1 μM, read-out: Late INa 1 μM (percent block of late INa); for Late INa 1 μM (percent block of late INa): compound at 1 μM
In short: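 hNav1.5-expressing HEK293 cells (no β subunits) were recorded by automated whole-cell patch clamp at 24–27 °C with CsF-based internal solution. Late current was induced by 10 μM tefluthrin (or 50 nM ATX II) and evoked by 250 ms steps from −120 to −20 mV at 0.1 Hz. Compounds, typically 10 μM, were applied in three additions over 7–8 min; mean current at 225–250 ms, normalised to 0Na baseline, gave percent block.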

Chain of wild-type human cardiac sodium channel, hNav1.5 (late sodium current) in HEK293 cells (Q14524 whole entry): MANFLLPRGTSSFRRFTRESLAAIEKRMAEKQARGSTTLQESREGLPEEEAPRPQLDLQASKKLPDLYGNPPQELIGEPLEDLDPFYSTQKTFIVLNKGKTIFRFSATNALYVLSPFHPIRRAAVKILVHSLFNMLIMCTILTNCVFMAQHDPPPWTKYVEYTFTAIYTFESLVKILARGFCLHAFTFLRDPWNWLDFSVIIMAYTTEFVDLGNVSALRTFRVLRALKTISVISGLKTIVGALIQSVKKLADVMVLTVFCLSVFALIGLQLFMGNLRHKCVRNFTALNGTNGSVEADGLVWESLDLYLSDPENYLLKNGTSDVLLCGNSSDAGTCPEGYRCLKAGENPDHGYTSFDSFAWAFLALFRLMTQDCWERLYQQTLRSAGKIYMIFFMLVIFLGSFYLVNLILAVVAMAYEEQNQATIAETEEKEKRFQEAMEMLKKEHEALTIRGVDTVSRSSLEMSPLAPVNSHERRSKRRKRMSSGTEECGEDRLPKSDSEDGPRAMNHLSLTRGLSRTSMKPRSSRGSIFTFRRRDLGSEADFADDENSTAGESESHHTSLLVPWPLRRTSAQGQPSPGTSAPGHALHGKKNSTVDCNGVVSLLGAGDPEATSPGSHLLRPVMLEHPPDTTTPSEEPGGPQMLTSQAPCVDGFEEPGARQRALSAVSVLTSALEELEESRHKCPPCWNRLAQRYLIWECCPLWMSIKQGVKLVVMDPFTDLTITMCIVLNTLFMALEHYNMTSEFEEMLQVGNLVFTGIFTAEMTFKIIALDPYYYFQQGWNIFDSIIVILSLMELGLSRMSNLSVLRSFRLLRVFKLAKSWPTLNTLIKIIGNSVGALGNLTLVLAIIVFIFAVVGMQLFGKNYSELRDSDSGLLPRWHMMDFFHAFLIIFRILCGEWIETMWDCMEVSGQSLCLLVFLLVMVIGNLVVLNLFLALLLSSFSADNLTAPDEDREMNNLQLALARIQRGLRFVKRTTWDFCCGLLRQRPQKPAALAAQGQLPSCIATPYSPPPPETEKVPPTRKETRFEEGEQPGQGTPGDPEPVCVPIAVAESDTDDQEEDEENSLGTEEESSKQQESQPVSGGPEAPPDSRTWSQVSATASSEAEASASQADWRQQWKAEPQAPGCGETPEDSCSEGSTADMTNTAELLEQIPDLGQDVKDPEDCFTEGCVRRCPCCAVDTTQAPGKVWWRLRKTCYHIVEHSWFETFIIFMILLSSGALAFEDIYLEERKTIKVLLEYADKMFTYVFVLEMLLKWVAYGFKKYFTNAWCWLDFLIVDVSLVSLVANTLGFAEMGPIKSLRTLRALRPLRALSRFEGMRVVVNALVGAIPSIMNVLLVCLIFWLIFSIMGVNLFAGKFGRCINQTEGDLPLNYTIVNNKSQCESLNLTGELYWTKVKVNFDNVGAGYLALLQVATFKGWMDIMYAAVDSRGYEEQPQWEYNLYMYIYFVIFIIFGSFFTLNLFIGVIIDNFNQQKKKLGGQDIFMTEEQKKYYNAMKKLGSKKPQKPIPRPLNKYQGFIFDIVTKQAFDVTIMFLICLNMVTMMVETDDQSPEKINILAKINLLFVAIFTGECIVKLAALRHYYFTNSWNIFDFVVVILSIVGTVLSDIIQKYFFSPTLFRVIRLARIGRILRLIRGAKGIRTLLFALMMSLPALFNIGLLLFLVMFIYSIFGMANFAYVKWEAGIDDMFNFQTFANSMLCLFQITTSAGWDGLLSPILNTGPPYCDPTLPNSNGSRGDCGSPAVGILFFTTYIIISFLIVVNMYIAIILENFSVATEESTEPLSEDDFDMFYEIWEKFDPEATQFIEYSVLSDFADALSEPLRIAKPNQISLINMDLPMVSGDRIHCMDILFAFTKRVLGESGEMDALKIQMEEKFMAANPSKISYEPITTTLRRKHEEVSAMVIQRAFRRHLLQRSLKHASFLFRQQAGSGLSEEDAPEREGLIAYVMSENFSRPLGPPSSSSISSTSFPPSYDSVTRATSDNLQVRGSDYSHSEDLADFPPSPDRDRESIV

SMILES: O=c1n(CCOc2nccn3ccnc23)nc2ccc(-c3ccc(OC(F)(F)F)cc3)cn12 [compound 174, 2-(2-(imidazo[1,2-a]pyrazin-8-yloxy)ethyl)-6-(4-(trifluoromethoxy)phenyl)-[1,2,4]triazolo[4,3-a]pyridin-3(2H)-one]
- inhibition at 1 µM: 26.3%

SMILES: O=c1n(CC(O)COc2ccccc2)nc2ccc(-c3ccc(OC(F)(F)F)cc3)cn12 (centres unmarked) [compound 43, 2-(2-hydroxy-3-phenoxypropyl)-6-(4-(trifluoromethoxy)phenyl)-[1,2,4]triazolo[4,3-a]pyridin-3(2H)-one]
- inhibition at 1 µM: 19.3%

SMILES: O=c1n(CCOc2nccn3cccc23)nc2ccc(-c3ccc(OC(F)(F)F)cc3)cn12 [compound 135, 2-(2-(pyrrolo[1,2-a]pyrazin-1-yloxy)ethyl)-6-(4-(trifluoromethoxy)phenyl)-[1,2,4]triazolo[4,3-a]pyridin-3(2H)-one]
- inhibition at 1 µM: 41.5%

SMILES: O=c1n(Cc2ccc(OC(F)(F)F)cc2)nc2ccc(-c3ccc(OC(F)(F)F)cc3)cn12 [compound 12, 2-(4-(trifluoromethoxy)benzyl)-6-(4-(trifluoromethoxy)phenyl)-[1,2,4]triazolo[4,3-a]pyridin-3(2H)-one]
- inhibition at 1 µM: 11.1%

SMILES: O=c1n(CC(O)COc2ccccc2-c2ccccc2)nc2ccc(-c3ccc(OC(F)(F)F)cc3)cn12 (centres unmarked) [compound 100, 2-(3-(biphenyl-2-yloxy)-2-hydroxypropyl)-6-(4-(trifluoromethoxy)phenyl)-[1,2,4]triazolo[4,3-a]pyridin-3(2H)-one]
- inhibition at 1 µM: 18%

SMILES: O=c1n(CCOc2ccccc2)nc2ccc(-c3ccc(OC(F)(F)F)cc3)cn12 [compound 28, 2-(2-phenoxyethyl)-6-(4-(trifluoromethoxy)phenyl)-[1,2,4]triazolo[4,3-a]pyridin-3(2H)-one]
- inhibition at 1 µM: 46.3%

SMILES: O=c1n(CCc2ccc(F)cc2F)nc2ccc(-c3ccc(OC(F)(F)F)cc3)cn12 [compound 78, 2-(2,4-difluorophenethyl)-6-(4-(trifluoromethoxy)phenyl)-[1,2,4]triazolo[4,3-a]pyridin-3(2H)-one]
- inhibition at 1 µM: 36.7%

SMILES: COc1nc(OCCn2nc3ccc(-c4ccc(OC(F)(F)F)cc4)cn3c2=O)ncc1Cl [compound 130, 2-(2-(5-chloro-4-methoxypyrimidin-2-yloxy)ethyl)-6-(4-(trifluoromethoxy)phenyl)-[1,2,4]triazolo[4,3-a]pyridin-3(2H)-one]
- inhibition at 1 µM: 32.4%

SMILES: O=c1n(C2COCC2Oc2ncccn2)nc2ccc(-c3ccc(OC(F)(F)F)cc3)cn12 (centres unmarked) [compound 109, 2-(4-(pyrimidin-2-yloxy)tetrahydrofuran-3-yl)-6-(4-(trifluoromethoxy)phenyl)-[1,2,4]triazolo[4,3-a]pyridin-3(2H)-one]
- inhibition at 1 µM: 12.9%

SMILES: N#Cc1ccnc(OCCn2nc3ccc(-c4ccc(OC(F)(F)F)cc4)cn3c2=O)n1 [compound 129]
- Late INa 1 μM (percent block of late INa): 16.1133%

SMILES: O=c1n(CCn2cnc(-c3ccccc3)c2)nc2ccc(-c3ccc(OC(F)(F)F)cc3)cn12 [compound 45, 2-(2-(4-phenyl-1H-imidazol-1-yl)ethyl)-6-(4-(trifluoromethoxy)phenyl)-[1,2,4]triazolo[4,3-a]pyridin-3(2H)-one]
- inhibition at 1 µM: 11.8%

SMILES: Cc1nc(COCCn2nc3ccc(-c4ccc(OC(F)(F)F)cc4)cn3c2=O)no1 [compound 86, 2-(2-((5-methyl-1,2,4-oxadiazol-3-yl)methoxy)ethyl)-6-(4-(trifluoromethoxy)phenyl)-[1,2,4]triazolo[4,3-a]pyridin-3(2H)-one]
- inhibition at 1 µM: 17.5%

SMILES: O=c1n(CC2CCc3ccccc3O2)nc2ccc(-c3ccc(OC(F)(F)F)cc3)cn12 (centres unmarked) [compound 77, 2-(chroman-2-ylmethyl)-6-(4-(trifluoromethoxy)phenyl)-[1,2,4]triazolo[4,3-a]pyridin-3(2H)-one]
- inhibition at 1 µM: 32.1%

SMILES: CO[C@H](COc1ccccc1Cl)Cn1nc2ccc(-c3ccc(OC(F)(F)F)cc3)cn2c1=O [compound 95, (S)-2-(3-(2-chlorophenoxy)-2-methoxypropyl)-6-(4-(trifluoromethoxy)phenyl)-[1,2,4]triazolo[4,3-a]pyridin-3(2H)-one]
- inhibition at 1 µM: 42.5%

SMILES: O=c1n(Cc2ccc3nonc3c2)nc2ccc(-c3ccc(OC(F)(F)F)cc3)cn12 [compound 10, 2-(benzo[c][1,2,5]oxadiazol-5-ylmethyl)-6-(4-(trifluoromethoxy)phenyl)-[1,2,4]triazolo[4,3-a]pyridin-3(2H)-one]
- inhibition at 1 µM: 16.9%

SMILES: O=c1n(-c2ccccn2)nc2ccc(-c3ccc(OC(F)(F)F)cc3)cn12 [compound 34, 2-(pyridin-2-yl)-6-(4-(trifluoromethoxy)phenyl)-[1,2,4]triazolo[4,3-a]pyridin-3(2H)-one]
- inhibition at 1 µM: 26%

SMILES: CCc1noc(Cn2nc3ccc(-c4ccc(OC(F)(F)F)cc4)cn3c2=O)n1 [compound 15, 2-((3-ethyl-1,2,4-oxadiazol-5-yl)methyl)-6-(4-(trifluoromethoxy)phenyl)-[1,2,4]triazolo[4,3-a]pyridin-3(2H)-one]
- Late INa 1 μM (percent block of late INa): 13.5253%

SMILES: O=c1n(CCc2cc(C3CC3)ccn2)nc2ccc(-c3ccc(OC(F)(F)F)cc3)cn12 [compound 57, 2-(2-(4-cyclopropylpyridin-2-yl)ethyl)-6-(4-(trifluoromethoxy)phenyl)-[1,2,4]triazolo[4,3-a]pyridin-3(2H)-one]
- inhibition at 1 µM: 20.7%

SMILES: O=c1n(CCOc2cnc(Cl)nc2)nc2ccc(-c3ccc(OC(F)(F)F)cc3)cn12 [compound 139, 2-(2-(2-chloropyrimidin-5-yloxy)ethyl)-6-(4-(trifluoromethoxy)phenyl)-[1,2,4]triazolo[4,3-a]pyridin-3(2H)-one]
- inhibition at 1 µM: 20.2%

SMILES: O=c1[nH]nc2ccc(-c3ccc(C(F)(F)F)cc3)cn12 [compound 171, 6-(4-(trifluoromethyl)phenyl)-[1,2,4]triazolo[4,3-a]pyridin-3(2H)-one]
- inhibition at 1 µM: 19.6%

SMILES: Cc1noc(Cn2nc3ccc(-c4cc(F)c(Oc5ccccc5)c(F)c4)cn3c2=O)n1 [compound 127, 6-(3,5-difluoro-4-phenoxyphenyl)-2-((3-methyl-1,2,4-oxadiazol-5-yl)methyl)-[1,2,4]triazolo[4,3-a]pyridin-3(2H)-one]
- inhibition at 1 µM: 21.5%

SMILES: COc1ccccc1OCC(O)Cn1nc2ccc(-c3ccc(OC(F)(F)F)cc3)cn2c1=O (centres unmarked) [compound 4, 2-(2-hydroxy-3-(2-methoxyphenoxy)propyl)-6-(4-(trifluoromethoxy)phenyl)-[1,2,4]triazolo[4,3-a]pyridin-3(2H)-one]
- inhibition at 1 µM: 20.8%

SMILES: CC(C)Oc1ccnc(OCCn2nc3ccc(-c4ccc(OC(F)(F)F)cc4)cn3c2=O)n1 [compound 177, 2-(2-(4-isopropoxypyrimidin-2-yloxy)ethyl)-6-(4-(trifluoromethoxy)phenyl)-[1,2,4]triazolo[4,3-a]pyridin-3(2H)-one]
- inhibition at 1 µM: 25.8%

SMILES: CCOC(COc1ccc(F)cc1OC)Cn1nc2ccc(-c3ccc(OC(F)(F)F)cc3)cn2c1=O (centres unmarked) [compound 105, 2-(2-ethoxy-3-(4-fluoro-2-methoxyphenoxy)propyl)-6-(4-(trifluoromethoxy)phenyl)-[1,2,4]triazolo[4,3-a]pyridin-3(2H)-one]
- inhibition at 1 µM: 45%

SMILES: O=c1n(CCc2ccncn2)nc2ccc(-c3ccc(OC(F)(F)F)cc3)cn12 [compound 113, 2-(2-(pyrimidin-4-yl)ethyl)-6-(4-(trifluoromethoxy)phenyl)-[1,2,4]triazolo[4,3-a]pyridin-3(2H)-one]
- inhibition at 1 µM: 17.8%

SMILES: O=c1n(CC#Cc2cnccc2Cl)nc2ccc(-c3ccc(OC(F)(F)F)cc3)cn12 [compound 68, 2-(3-(4-chloropyridin-3-yl)prop-2-ynyl)-6-(4-(trifluoromethoxy)phenyl)-[1,2,4]triazolo[4,3-a]pyridin-3(2H)-one]
- inhibition at 1 µM: 11.1%

SMILES: Cc1oc(-c2ccccc2)nc1Cn1nc2ccc(-c3ccc(OC(F)(F)F)cc3)cn2c1=O [compound 21, 2-((5-methyl-2-phenyloxazol-4-yl)methyl)-6-(4-(trifluoromethoxy)phenyl)-[1,2,4]triazolo[4,3-a]pyridin-3(2H)-one]
- inhibition at 1 µM: 11%

SMILES: O=c1n(Cc2noc(C(F)F)n2)nc2ccc(-c3ccc(OC(F)(F)F)cc3)cn12 [compound 154, 2-((5-(difluoromethyl)-1,2,4-oxadiazol-3-yl)methyl)-6-(4-(trifluoromethoxy)phenyl)-[1,2,4]triazolo[4,3-a]pyridin-3(2H)-one]
- inhibition at 1 µM: 21%

SMILES: O=c1n(CCCc2ccc(F)c(-c3ncco3)c2)nc2ccc(-c3ccc(OC(F)(F)F)cc3)cn12 [compound 119, 2-(3-(4-fluoro-3-(oxazol-2-yl)phenyl)propyl)-6-(4-(trifluoromethoxy)phenyl)-[1,2,4]triazolo[4,3-a]pyridin-3(2H)-one]
- inhibition at 1 µM: 22%

SMILES: O=c1n(Cc2ccc3ccccc3n2)nc2ccc(-c3ccc(OC(F)(F)F)cc3)cn12 [compound 13, 2-(quinolin-2-ylmethyl)-6-(4-(trifluoromethoxy)phenyl)-[1,2,4]triazolo[4,3-a]pyridin-3(2H)-one]
- inhibition at 1 µM: 24.6%

SMILES: Cn1cc(Cn2nc3ccc(-c4ccc(OC(F)(F)F)cc4)cn3c2=O)cn1 [compound 163, 2-((1-methyl-1H-pyrazol-4-yl)methyl)-6-(4-(trifluoromethoxy)phenyl)-[1,2,4]triazolo[4,3-a]pyridin-3(2H)-one]
- inhibition at 1 µM: 12%

SMILES: O=c1n(CCn2cccn2)nc2ccc(-c3ccc(OC(F)(F)F)cc3)cn12 [compound 35, 2-(2-(1H-pyrazol-1-yl)ethyl)-6-(4-(trifluoromethoxy)phenyl)-[1,2,4]triazolo[4,3-a]pyridin-3(2H)-one]
- inhibition at 1 µM: 12.2%
